Assay results reported in patent US5241059A, “Cyclodextrin derivatives” (Toppan Printing Co., Ltd., priority 1990, dated 1993).
Where two headings read alike, the source gives them in different places.

What was measured:
[1] = cited from earlier work

| Water Solubility (water) [g/100 ml H2 O] | Compound | other results |
| --- | --- | --- |
| > 300 | O=C(O)COCC1OC2OC3C(COCC(=O)O)OC(OC4C(COCC(=O)O)OC(OC5C(COCC(=O)O)OC(OC6C(COCC(=O)O)OC(OC7C(COCC(=O)O)OC(OC8C(COCC(=O)O)OC(OC1C(O)C2O)C(O)C8O)C(O)C7O)C(O)C6O)C(O)C5O)C(O)C4O)C(O)C3O (stereo not drawn) [Heptacarboxylic acid β-CD] | – |
| – | C[N+](C)(C)CC1OC2OC3C(CO)OC(OC4C(CO)OC(OC5C(CO)OC(OC6C(CO)OC(OC7C(CO)OC(OC8C(CO)OC(OC1C(O)C2O)C(O)C8O)C(O)C7O)C(O)C6O)C(O)C5O)C(O)C4O)C(O)C3O.[Cl-] (stereo not drawn) [Monotrimethylammonium (chloride) β-CD] | Water Solubility (25° C.): > 200 g/100 ml H2 O |
| – | Hydroxypropyl β-CD | Water Solubility [1]: 115 g/100 ml H2 O |
| > 250 | mono-6-dihydroxyphosphonyl-6-deoxy β-CD [Monophosphoric acid β-CD] | – |
